Here are results for 16 compounds from patent US20100022491A1, “4-HYDROXY-2-OXO-2,3-DIHYDRO-1,3-BENZOTHIAZOL-7YL COMPOUNDS FOR MODULATION OF B2-ADRENORECEPTOR ACTIVITY” (ASTRAZENECA AB, priority 2006, published 2010).

Structures can show the parent of a compound that is named as a salt.

In one test the target is T1, Adrenergic β2 (Homo sapiens, UniProt P07550).
T1 construct: Adherent H292 cells were removed from tissue culture flasks; endogenous in cells; host or cells: H292 cells
The test is described as follows: Adrenergic β2 mediated cAMP production in H292 cells. To be noted: for EC50: H292 cells, cAMP by AlphaScreen, 60 minutes at room temperature, rolipram 300 μM, read-out: β2 pEC50 (converted); for β2 Int Act: Intrinsic Activity as a fraction relative to the maximum activity determined for formoterol. The test is classed as cell-based. In a few lines:
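H292 cells pretreated 10 min with rolipram (300 μM final), then exposed to agonist 60 min at room temperature in HEPES-buffered HBSS, 1.6% DMSO final. Lysate cAMP quantified by AlphaScreen against a cAMP standard curve; four-parameter fit gives pEC50 and intrinsic activity relative to formoterol maximum.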
For orientation: Cyclic AMP is a second messenger, typically raised through Gs and lowered through Gi signalling.

The target in test [1] is T2, recombinant human adrenergic beta 1 receptors (Homo sapiens, UniProt P08588).
T2 construct: purchased Euroscreen
T2 sequence (P08588 whole entry): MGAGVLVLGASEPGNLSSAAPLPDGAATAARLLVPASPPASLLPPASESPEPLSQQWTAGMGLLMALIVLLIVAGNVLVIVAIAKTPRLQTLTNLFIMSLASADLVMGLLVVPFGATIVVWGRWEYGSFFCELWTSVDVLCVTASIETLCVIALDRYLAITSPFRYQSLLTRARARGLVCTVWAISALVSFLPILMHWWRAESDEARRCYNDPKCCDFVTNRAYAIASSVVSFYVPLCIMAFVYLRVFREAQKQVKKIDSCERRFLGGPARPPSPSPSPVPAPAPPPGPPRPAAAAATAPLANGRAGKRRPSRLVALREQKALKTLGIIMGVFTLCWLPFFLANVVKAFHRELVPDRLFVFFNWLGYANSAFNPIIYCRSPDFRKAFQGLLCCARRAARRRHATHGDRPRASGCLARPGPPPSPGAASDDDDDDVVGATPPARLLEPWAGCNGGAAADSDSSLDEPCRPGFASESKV
The test is described as follows: Adrenergic β1 selectivity binding assay ([125I]-Iodocyanopindolol). The conditions noted are these: inhibition of [125I]-Iodocyanopindolol (0.036 nM) binding; read-out: β1 bind p IC50 (converted). The method in brief:
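Recombinant human β1 membranes in HEPES buffer pH 7.4 with 120 mM NaCl were incubated 2 hours at room temperature with 0.036 nM [^125I]-Iodocyanopindolol. Nonspecific binding defined by 10 μM propranolol; bound radioactivity counted after filtration. pIC50 from four-parameter logistic fit.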

Test [2] addresses T3, recombinant human Dopamine Subtype D2s receptors (Homo sapiens, UniProt P14416).
T3 construct: purchased Perkin Elmer
The test is described as follows: Dopamine D2 selectivity binding assay ([3H]-spiperone). To be noted: inhibition of [3H]-spiperone (0.16 nM) binding; read-out: D2 bind pIC50 (converted). In a few lines: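 Recombinant human D2s membranes incubated 2 h at room temperature with 0.16 nM [3H]-spiperone in HEPES/EDTA/NaCl/gelatin buffer, pH 7.4; 10 μM haloperidol defined non-specific binding. Filter-bound radioactivity counted after cold washes. pIC50 from 4-parameter logistic fit of NSB-corrected specific binding.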

T3 sequence (P14416 1-414 isoform P14416-2): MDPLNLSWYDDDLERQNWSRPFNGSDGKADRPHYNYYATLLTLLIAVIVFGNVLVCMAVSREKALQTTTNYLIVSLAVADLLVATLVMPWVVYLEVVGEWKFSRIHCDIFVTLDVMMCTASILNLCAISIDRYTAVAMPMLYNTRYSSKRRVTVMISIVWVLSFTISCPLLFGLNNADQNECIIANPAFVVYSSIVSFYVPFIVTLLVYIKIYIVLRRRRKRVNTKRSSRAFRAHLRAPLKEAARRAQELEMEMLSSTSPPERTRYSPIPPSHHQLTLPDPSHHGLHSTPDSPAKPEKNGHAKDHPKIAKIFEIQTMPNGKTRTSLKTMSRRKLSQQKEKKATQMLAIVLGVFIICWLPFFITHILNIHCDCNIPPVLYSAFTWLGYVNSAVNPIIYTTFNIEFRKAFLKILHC
T1 sequence (P07550 whole entry): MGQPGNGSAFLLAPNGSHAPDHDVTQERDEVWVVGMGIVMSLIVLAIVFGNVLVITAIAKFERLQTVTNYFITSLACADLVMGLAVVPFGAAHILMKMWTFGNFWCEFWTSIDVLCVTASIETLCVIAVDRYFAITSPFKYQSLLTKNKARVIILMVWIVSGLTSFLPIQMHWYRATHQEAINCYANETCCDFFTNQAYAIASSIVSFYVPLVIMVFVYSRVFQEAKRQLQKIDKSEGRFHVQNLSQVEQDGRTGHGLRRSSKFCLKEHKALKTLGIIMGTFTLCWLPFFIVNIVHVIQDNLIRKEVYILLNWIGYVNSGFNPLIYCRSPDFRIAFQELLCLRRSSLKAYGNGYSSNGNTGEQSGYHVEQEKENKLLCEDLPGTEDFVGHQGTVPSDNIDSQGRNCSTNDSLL

For `O=C(CCNCCc1cccc(F)c1)N(CCNCCc1ccc(O)c2[nH]c(=O)sc12)C1CCCCCC1` [Example 36, N-Cycloheptyl-N^3-[2-(3-fluorophenyl)ethyl]-N-(2-{[2-(4-hydroxy-2-oxo-2,3-dihydro-1,3-benzothiazol-7-yl)ethyl]amino}ethyl)-β-alaninamide bis-trifluoroacetic acid salt], on Adrenergic β2, the EC50 is 2.51 nM and the “β2 Int Act” value is listed as 0.84. Further, the IC50 in test [1] is 3160 nM. For the same compound, the IC50 in test [2] is 200 nM.

As to `O=C(CCNCCc1cccc(O)c1)N(CCNCCc1ccc(O)c2[nH]c(=O)sc12)C1CCCCCC1` [Example 37, N-Cycloheptyl-N-(2-{[2-(4-hydroxy-2-oxo-2,3-dihydro-1,3-benzothiazol-7-yl)ethyl]amino}ethyl)-N^3-[2-(3-hydroxyphenyl)ethyl]-β-alaninamide bis-trifluoroacetic acid salt], the EC50 on Adrenergic β2 is 1 nM. Further, the “β2 Int Act” value at Adrenergic β2 worked out at 0.91. Also, the figures for the IC50 in test [1] and in test [2] were 3980 nM and 398 nM, respectively.

`CC(C)(C)CN(CCNCCc1ccc(O)c2[nH]c(=O)sc12)C(=O)CCNC(C)(C)Cc1ccccc1` [Example 38, N^3-(1,1-Dimethyl-2-phenylethyl)-N-(2,2-dimethylpropyl)-N-(2-{[2-(4-hydroxy-2-oxo-2,3-dihydro-1,3-benzothiazol-7-yl)ethyl]amino}ethyl)-β-alaninamide bis-trifluoroacetic acid salt]: the EC50 at Adrenergic β2 is 63.1 nM. The “β2 Int Act” value at Adrenergic β2 is given as 0.42. The IC50 in test [1] was 5010 nM; in test [2] it was 794 nM.

Regarding `O=C(CCNCCc1ccccc1)N(CCNCCc1ccc(O)c2[nH]c(=O)sc12)C1Cc2ccccc2C1` [Example 41, N^1-(2,3-Dihydro-1H-inden-2-yl)-N^1-(2-{[2-(4-hydroxy-2-oxo-2,3-dihydro-1,3-benzothiazol-7-yl)ethyl]amino}ethyl)-N^3-(2-phenylethyl)-β-alaninamide bis-trifluoroacetic acid salt], on Adrenergic β2, the EC50 is 31.6 nM and the “β2 Int Act” value was determined as 0.99. In addition, the IC50 in test [1] was 1580 nM. For the same compound, in test [2], the IC50 was 200 nM.

Consider `O=C(CCNCCc1cccc(Cl)c1)N(CCNCCc1ccc(O)c2[nH]c(=O)sc12)C1Cc2ccccc2C1` [Example 42, N^3-[2-(3-Chlorophenyl)ethyl]-N^1-(2,3-dihydro-1H-inden-2-yl)-N^1-(2-{[2-(4-hydroxy-2-oxo-2,3-dihydro-1,3-benzothiazol-7-yl)ethyl]amino}ethyl)-β-alaninamide bis-trifluoroacetic acid salt], for which the EC50 at Adrenergic β2 is 15.8 nM. On Adrenergic β2, the “β2 Int Act” value came out at 0.82. Moreover, the IC50 in test [1] was 1260 nM; in test [2] it was 100 nM.

With `COc1cccc(CCNCCC(=O)N(CCNCCc2ccc(O)c3[nH]c(=O)sc23)CC(C)(C)C)c1` [Example 43, N^1-(2,2-Dimethylpropyl)-N^1-(2-{[2-(4-hydroxy-2-oxo-2,3-dihydro-1,3-benzothiazol-7-yl)ethyl]amino}ethyl)-N^3-[2-(3-methoxyphenyl)ethyl]-β-alaninamide bis-trifluoroacetic acid salt], at Adrenergic β2, the EC50 is 10 nM. Also, the “β2 Int Act” value at Adrenergic β2 is on record as 0.67. Besides, the IC50 in test [1] is 5010 nM; in test [2], 200 nM.

For `CC(C)(C)CN(CCNCCc1ccc(O)c2[nH]c(=O)sc12)C(=O)CCNCCc1cccc(F)c1` [Example 44, N^1-(2,2-Dimethylpropyl)-N^3-[2-(3-fluorophenyl)ethyl]-N^1-(2-{[2-(4-hydroxy-2-oxo-2,3-dihydro-1,3-benzothiazol-7-yl)ethyl]amino}ethyl)-β-alaninamide bis-trifluoroacetic acid salt], on Adrenergic β2, the EC50 was 6.31 nM and the “β2 Int Act” value amounted to 0.73. In addition, the IC50 in test [1] is 5010 nM. Moreover, the IC50 in test [2] is 126 nM.

In the case of `CC(C)(CN(CCNCCc1ccc(O)c2[nH]c(=O)sc12)C(=O)CCNCCc1ccccc1)c1ccccc1` [Example 45, N^1-(2-{[2-(4-Hydroxy-2-oxo-2,3-dihydro-1,3-benzothiazol-7-yl)ethyl]amino}ethyl)-N^1-(2-methyl-2-phenylpropyl)-N^3-(2-phenylethyl)-β-alaninamide bis-trifluoroacetic acid salt], at Adrenergic β2, the EC50 is 25.1 nM and the “β2 Int Act” value is listed as 0.55. Besides, the IC50 in test [1] was 1260 nM. Also, the IC50 in test [2] is 251 nM.

For the compound `O=C(CCNCCc1ccccc1Cl)N(CCNCCc1ccc(O)c2[nH]c(=O)sc12)C1CCC(F)(F)CC1` [Example 46, N^3-[2-(2-Chlorophenyl)ethyl]-N^1-(4,4-difluorocyclohexyl)-N^1-(2-{[2-(4-hydroxy-2-oxo-2,3-dihydro-1,3-benzothiazol-7-yl)ethyl]amino}ethyl)-β-alaninamide bis-trifluoroacetic acid salt], at Adrenergic β2, the EC50 is 3.16 nM and the “β2 Int Act” value was 0.78. Besides, in test [1], the IC50 was 1580 nM. In test [2], the IC50 was 39.8 nM.

For the compound `O=C(CCNCCc1cccc(Cl)c1)N(CCNCCc1ccc(O)c2[nH]c(=O)sc12)C1CCC(F)(F)CC1` [Example 47, N^3-[2-(3-Chlorophenyl)ethyl]-N^1-(4,4-difluorocyclohexyl)-N^1-(2-{[2-(4-hydroxy-2-oxo-2,3-dihydro-1,3-benzothiazol-7-yl)ethyl]amino}ethyl)-β-alaninamide bis-trifluoroacetic acid salt], at Adrenergic β2, the EC50 is 3.16 nM and the “β2 Int Act” value worked out at 0.73. Besides, in test [1], the IC50 is 1260 nM. In addition, the IC50 in test [2] was 158 nM.

Regarding `O=C(CCNCCc1ccc(Cl)cc1)N(CCNCCc1ccc(O)c2[nH]c(=O)sc12)C1CCC(F)(F)CC1` [Example 48, N^3-[2-(4-Chlorophenyl)ethyl]-N^1-(4,4-difluorocyclohexyl)-N^1-(2-{[2-(4-hydroxy-2-oxo-2,3-dihydro-1,3-benzothiazol-7-yl)ethyl]amino}ethyl)-β-alaninamide bis-trifluoroacetic acid salt], the EC50 at Adrenergic β2 was 10 nM. The “β2 Int Act” value at Adrenergic β2 was 0.55. Moreover, the IC50 is 2510 nM in test [1] and 100 nM in test [2].

Regarding `O=C(CCNCCc1cccc(Cl)c1)N(CCNCCc1ccc(O)c2[nH]c(=O)sc12)C1CCCCCC1` [Example 50, N^3-[2-(3-Chlorophenyl)ethyl]-N^1-cycloheptyl-N^1-(2-{[2-(4-hydroxy-2-oxo-2,3-dihydro-1,3-benzothiazol-7-yl)ethyl]amino}ethyl)-β-alaninamide bis-trifluoroacetic acid salt], on Adrenergic β2, the EC50 was 1.26 nM and the “β2 Int Act” value worked out at 0.91. The IC50 in test [1] is 794 nM. The IC50 in test [2] was 31.6 nM.

Take `O=C(CCNCCc1ccc(Cl)cc1)N(CCNCCc1ccc(O)c2[nH]c(=O)sc12)C1CCCCCC1` [Example 51, N^3-[2-(4-Chlorophenyl)ethyl]-N^1-cycloheptyl-N^1-(2-{[2-(4-hydroxy-2-oxo-2,3-dihydro-1,3-benzothiazol-7-yl)ethyl]amino}ethyl)-β-alaninamide bis-trifluoroacetic acid salt]: on Adrenergic β2, the EC50 was 5.01 nM. Further, the “β2 Int Act” value on Adrenergic β2 came to 0.59. For the same compound, the IC50 in test [1] was 2510 nM; in test [2], 25.1 nM.

As to `O=C(CCNCCc1cccs1)N(CCNCCc1ccc(O)c2[nH]c(=O)sc12)C1CCCCCC1` [Example 52, N^1-Cycloheptyl-N^1-(2-{[2-(4-hydroxy-2-oxo-2,3-dihydro-1,3-benzothiazol-7-yl)ethyl]amino}ethyl)-N^3-[2-(2-thienyl)ethyl]-β-alaninamide bis-trifluoroacetic acid salt], at Adrenergic β2, the EC50 is 3.16 nM and the “β2 Int Act” value turned out to be 0.92. Besides, the IC50 in test [1] was 1580 nM. The IC50 in test [2] was 39.8 nM.

For `O=C(CCNCCc1ccc(F)c(F)c1)N(CCNCCc1ccc(O)c2[nH]c(=O)sc12)C1CCCCCC1` [Example 53, N^1-Cycloheptyl-N^1-[2-(3,4-difluorophenyl)ethyl]-N^1-(2-{[2-(4-hydroxy-2-oxo-2,3-dihydro-1,3-benzothiazol-7-yl)ethyl]amino}ethyl)-β-alaninamide bis-trifluoroacetic acid salt], on Adrenergic β2, the EC50 is 10 nM and the “β2 Int Act” value was found to be 0.74. Besides, in test [1], the IC50 was 3980 nM. Moreover, the IC50 in test [2] is 79.4 nM.

With `O=C(CCNCCc1cccc(OC(F)F)c1)N(CCNCCc1ccc(O)c2[nH]c(=O)sc12)C1CCCCCC1` [Example 54, N-Cycloheptyl-N^3-{2-[3-(difluoromethoxy)phenyl]ethyl}-N^1-(2-{[2-(4-hydroxy-2-oxo-2,3-dihydro-1,3-benzothiazol-7-yl)ethyl]amino}ethyl)-β-alaninamide bis-trifluoroacetic acid salt], on Adrenergic β2, the EC50 is 10 nM and the “β2 Int Act” value stood at 0.69. Also, the IC50 in test [1] was 2510 nM. Further, the IC50 in test [2] is 50.1 nM.
